Assay results from patent US20250320190A1, “Novel Inhibitors of Leucine Carboxyl Methyltransferase-1 (LCMT-1) and Methods of Use Thereof” (Temple University-Of The Commonwealth System of Higher …, priority 2024, published 2025).

Columns and labels:
Jurkat cells = experiment: Cytotoxicity assay (Ghost Dye 710 flow cytometry); type: cell-based; details: Homo sapiens, 48 hours
Description: (§1) Jurkat and THP-1 cells were seeded in 6-well plates at a density of 2.5×10^5 cells/mL. After 24 hours LCMT-li was added at various concentrations. After 48 hours, cells were pelleted and washed twice with ice-cold phosphate-buffered saline (PBS). Cells were stained with Ghost Dye™ 710 (Cytek®, Bethesda, Maryland) viability dye, 0.1 μL/mL in PBS on ice in the dark for 30 minutes. Cells were pelleted and washed twice with ice-cold PBS with 10% FBS. Cells were pelleted and fixed with 4% formaldehyde in PBS on ice for 15 minutes. Cells were pelleted and resuspended in PBS with 5% bovine serum albumin (BSA). Cells were analyzed with a Becton-Dickinson FACSymphony™ flow cytometer with at least 3 replicates; 3×10^4 cells were analyzed with each replicate for statistical significance.
(§2) Statistical analyses were performed with GraphPad Prism software (version 10.4.1). Effective concentrations that inhibited 50% of cells (EC50, log agonist versus response) were estimated with nonlinear fit curves. Absorbance values for cytotoxity assays and relative densities for Western blot assays were compared using Kruskal-Wallis analyses of variance with Dunn's correction for multiple comparisons. For flow cytometric analyses, two-way analyses of variance with Tukey's correction for multiple comparisons were used.

THP-1 cells = experiment: Cytotoxicity assay (Ghost Dye 710 flow cytometry); type: cell-based; details: Homo sapiens, 48 hours
Description: as §1, §2

MDA-MB-231 cells = experiment: Western blots; type: cell-based, human; details: 20 μM
Description: (§3) MCF7, MDA-MB-231 and Rosi cells were treated with Compound 1 or Compound 2 at a concentration of 20 μM in complete medium, and lysates were harvested after 2, 4, 6, 8 and 12 hours in radioimmunoprecipitation assay buffer containing protease inhibitors (Boster Bio, Pleasanton, California, catalog #AR1182-1) and phosphatase inhibitors (Santa Cruz Biotechnology catalog #sc-45044 and #sc-45045). Protein concentrations were measured with a bicinchoninic acid assay (G-Biosciences, Saint Louis, Missouri). Fifty micrograms of each lysate were used for bis-tris polyacrylamide gel electrophoresis. Resolved lysates were transferred to nitrocellulose membranes. Membranes were blocked with TBS with 5% bovine serum albumin before incubation with primary antibodies.
(§4) Antibodies obtained from Cell Signaling Technology (Danvers Massachusetts) were, anti-PP2Ac (catalog #2038, 1:1,000 dilution), anti-phospho-adenosine monophosphate-activated protein kinase (pAMPKα2 threonine 172, catalog #2535, 1:1,000 dilution). Antibodies obtained from Proteintech (Rosemont, Illinois) include anti-phospho-receptor-interacting serine/threonine protein kinase-1 antibodies (pRIPK1 serine 161 (catalog #66854-1-Ig, 1:1,000 dilution) and pRIPK1 serine 166 (catalog #28252-1-AP, 1:10,000 dilution), anti-mixed lineage kinase domain like pseudokinase (MLKL, catalog #66675-1-Ig, 1:5,000 dilution), anti-AMPKα2, anti-phospho-acetyl-coenzyme A carboxylase (pACC1 serine 79, catalog #29119-1-AP, 1:1,000 dilution), anti-ACC1 (catalog #21923-1-AP, 1:2,000 dilution) and anti-β-actin (catalog #66009-1-Ig, 1:50,000 dilution). The anti-RIPKI antibody was obtained from AbClonal (Woburn, Massachusetts, catalog #A7414, 1:750 dilution). The anti-phospho-MLKL antibody was obtained from R&D Systems (Minneapolis, Minnesota, 1:1,000 dilution). The LCMT-1 antibody was obtained from Origene (Rockville, Maryland, catalog #TA503127S, 1:2,000 dilution). Appropriate IR-dye secondary antibodies were used (Alexa Fluor® 790-conjugated anti-mouse (catalog #115-655-146, 1:50,000 dilution), Alexa Fluor® 680-conjugated anti-mouse (catalog #115-625-146, 1:50,000 dilution), and Alexa Fluor® 680-conjugated anti-rabbit (catalog #115-625-144, 1:50,000 dilution) were obtained from Jackson ImmunoResearch Laboratories (West Grove, Pennsylvania). Band densities were normalized to β-actin, the endogenous control. At least five replicates were used for statistical analyses.

Rosi cells = experiment: Western blots; type: cell-based, human; details: 20 μM
Description: as §3, §4

MCF7 cells = experiment: Western blots; type: cell-based, human; details: 20 μM
Description: as §3, §4

SMILES: COC(=O)c1c(NC(=O)c2ccccc2C)sc(C(=O)Nc2cccc(C)c2)c1C [Compound 2, methyl 4-methyl-2-[(2-methylbenzoyl)amino]-5-[[(3-methylphenyl)amino]carbonyl]-3-thiophenecarboxylate]
- EC50 (Jurkat cells): 224 µM
- EC50 (THP-1 cells): 10.4 µM
- RIPK1 phosphorylation at serine 161 (MDA-MB-231 cells): increased RIPK1 phosphorylation at serine 161
- cytosolic PP2Ab expression (MDA-MB-231 cells): did not change cytosolic expression PP2Ab
- phosphorylation of AMPK (MDA-MB-231 cells): Increased phosphorylation of AMPK was not found
- phosphorylation of MLKL (MDA-MB-231 cells): not in MDA-MB-231 cells
- PP2Ac methylation (MDA-MB-231 cells; Compound 2 significant at 4 hours): decreased PP2Ac methylation
- RIPK1 phosphorylation at serine 161 (Rosi cells): increased RIPK1 phosphorylation at serine 161
- phosphorylation of ACC1 (Rosi cells): increased phosphorylation of ACC1
- phosphorylation of AMPK (Rosi cells): Increased phosphorylation of AMPK was not found
- phosphorylation of MLKL (Rosi cells): Increased phosphorylation of MLKL was noted
- PP2Ac methylation (Rosi cells; Compound 2 significant at 6 hours): decreased PP2Ac methylation
- cytosolic PP2Ab expression (Rosi cells; after 4-6 hours of exposure): decreased cytosolic PP2Ab expression
- RIPK1 phosphorylation at serine 161 (MCF7 cells): did not statistically increase
- phosphorylation of ACC1 (MCF7 cells): increased phosphorylation of ACC1
- phosphorylation of AMPK (MCF7 cells): Increased phosphorylation of AMPK was not found
- phosphorylation of MLKL (MCF7 cells): Increased phosphorylation of MLKL was noted
- cytosolic PP2Ab expression (MCF7 cells; after 4-6 hours of exposure): decreased cytosolic PP2Ab expression
- PP2Ac methylation (MCF7 cells; lysates after 2, 4, 6, 8 and 12 hours): did not significantly decrease methylation of PP2Ac
